Test results reported in US10081628B2, “Apoptosis-inducing agents for the treatment of cancer and immune and autoimmune diseases” (AbbVie Inc., priority 2013, dated 2018).
Read-outs that look alike come from different tables or passages of the source.

How the values were obtained:
[1] = molecular target: GST-Bcl-2 (Homo sapiens, UniProt P10415); test: TR-FRET Bcl-2 binding assay (F-Bak peptide probe); settings: GST-Bcl-2 1 nM, F-Bak peptide probe 100 nM, Tb-anti-GST 1 nM; Wang's equation; '<' = below limit of detection
Method: Determination of the utility of compounds of this invention as binders to and inhibitors of anti-apoptotic Bcl-2 proteins was performed using the Time Resolved-Fluorescence Resonance Energy Transfer (TR-FRET) Assay. Tb-anti-GST antibody was purchased from Invitrogen (Catalog No. PV4216).
Representative compounds were serially diluted in dimethyl sulfoxide (DMSO) starting at 50 μM (2× starting concentration; 10% DMSO) and 10 μL were transferred into a 384-well plate. The samples are then mixed on a shaker for 1 minute and incubated for an additional 3 hours at room temperature. For each assay, the probe/antibody and protein/probe/antibody were included on each assay plate as negative and positive controls, respectively. Fluorescence was measured on the Envision (Perkin Elmer) using a 340/35 nm excitation filter and 520/525 (F-Bak peptide) and 495/510 nm (Tb-labeled […] antibody) emission filters. Dissociation constants (Ki) are shown in TABLE 2 below and were determined using Wang's equation (Wang Z.-X., An Exact Mathematical Expression For Describing Competitive Binding Of Two Different Ligands To A Protein Molecule. FEBS Lett. 1995, 360:111-4).
The samples were then mixed on a shaker for 1 minute and incubated for an additional 3 hours at room temperature. For each assay, the probe/antibody and protein/probe/antibody were included on each assay plate as negative and positive controls, respectively. Fluorescence was measured on the Envision (Perkin Elmer) using a 340/35 nm excitation filter and 520/525 (F-Bak peptide) and 495/510 nm (Tb-labeled anti-Histidine antibody) emission filters.
Inhibition constants (Ki) for compounds were determined using Wang's equation (Wang Zx. An Exact Mathematical Expression For Describing Competitive Binding Of Two Different Ligands To A Protein Molecule. FEBS Lett. 1995, 360:111-4).
The inhibition constant (Ki) is the dissociation constant of an enzyme-inhibitor complex or a protein/small molecule complex, wherein the small molecule is inhibiting binding of one protein to another protein or peptide. So a large Ki value indicates a low binding affinity and a small Ki value indicates a high binding affinity. […] The compounds are therefore expected to have utility in treatment of diseases during which anti-apoptotic Bcl-2 protein is expressed. Biological Data

[2] = test system: RS4;11 cells; test: RS4;11 cell viability assay (CellTiter Glo); format: cell-based; settings: 10% human serum, 48 hours
From the text: The acute lymphoblastic leukemia (ALL) cell line RS4;11 was used as the primary human cell line to assess the cellular activity of Bcl-2 selective agents in vitro and their efficacy in vivo. Previous studies have shown by BH3 profiling, a mitochondrial assay that classifies blocks in the intrinsic apoptotic pathway, that RS4;11 cells were highly dependant on BCL-2 for survival and sensitive to the Bcl-2 family member inhibitor ABT-737 (Blood, 2008, Vol. 111, 2300-2309).
RS4;11 cells were cultured in RPMI-1640 supplemented with 2 mM L-glutamine, 10% FBS, 1 mM sodium pyruvate, 2 mM HEPES, 1% penicillin/streptomycin (Invitrogen), 4.5 g/L glucose and maintained at 37 C containing 5% CO2. To test for the cellular activity of compounds in vitro, cells were treated at 50,000 cells per well in 96-well microtiter plates in the presence of 10% human serum for 48 hours in a humidified chamber with 5% CO2. Cell cytotoxicity EC50 values were assessed using CellTiter Glo (Promega) according to the manufacturer's recommendations. The EC50 values were determined as a percentage of viable cells following treatment compared to the untreated control cells.

[3] = test system: lymphocytes; test: Lymphocyte reduction in C57BL/6 mice; format: in vivo; settings: Mus musculus, ip
Method: An experiment was performed to evaluate the effect of Bcl-2 selective/Bcl-xL sparing compounds on immune cells and platelets, as evaluated in C57Bl/6 mice. Mice were treated four days with compounds (doses of 30 mg/kg, administered by intraperitoneal injection every day) and cell numbers were measured with a Cell Dyn hematology analyzer 24 hours after the first and last doses. Exposure of the compound (area under the curve) was calculated by using time points of 1, 6, 10 and 24 hours after the last dose.

[4] = 30 mg/kg intraperitoneal every day for four days, 24 hours after the last dose, read-out: Lymphocyte reduction % inh. day 4
[5] = 30 mg/kg intraperitoneal every day, 24 hours after the first dose, read-out: Lymphocyte reduction % inh. day 1

Sequence of GST-Bcl-2 (P10415 whole entry): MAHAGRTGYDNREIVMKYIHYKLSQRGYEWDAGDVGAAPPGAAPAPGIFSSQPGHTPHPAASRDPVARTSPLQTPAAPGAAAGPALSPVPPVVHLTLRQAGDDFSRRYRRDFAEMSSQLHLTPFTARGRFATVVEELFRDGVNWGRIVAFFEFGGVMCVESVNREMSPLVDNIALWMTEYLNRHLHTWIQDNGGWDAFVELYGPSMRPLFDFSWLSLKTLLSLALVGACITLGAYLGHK

| Compound | Ki [1] | EC50 [2] | inhibition at 30 mg/kg [3, 4] | inhibition at 30 mg/kg [3, 5] |
| --- | --- | --- | --- | --- |
| CC1(C)CCC(CN2CCN(c3ccc(C(=O)NS(=O)(=O)c4ccc(NC[C@H]5CC[C@@]6(CCCO6)CC5)c([N+](=O)[O-])c4)c(Oc4cnc5[nH]ccc5c4)c3)CC2)=C(c2ccc(Cl)cc2)C1 [Example 5, 4-(4-{[2-(4-chlorophenyl)-4,4-dimethylcyclohex-1-en-1-yl]methyl}piperazin-1-yl)-N-[(3-nitro-4-{[(5R,8R)-1-oxaspiro[4.5]dec-8-ylmethyl]amino}phenyl)sulfonyl]-2-(1H-pyrrolo[2,3-b]pyridin-5-yloxy)benzamide] | < 0.1 nM | 5.2 nM | 45% | 47% |
| COC1(CNc2ccc(S(=O)(=O)NC(=O)c3ccc(N4CCN(CC5=C(c6ccc(Cl)cc6)CC(C)(C)CC5)CC4)cc3Oc3cnc4[nH]ccc4c3)cc2[N+](=O)[O-])CCOCC1 [Example 27, 4-(4-{[2-(4-chlorophenyl)-4,4-dimethylcyclohex-1-en-1-yl]methyl}piperazin-1-yl)-N-[(4-{[(4-methoxytetrahydro-2H-pyran-4-yl)methyl]amino}-3-nitrophenyl)sulfonyl]-2-(1H-pyrrolo[2,3-b]pyridin-5-yloxy)benzamide] | < 0.1 nM | 97 nM | 21% | 23% |
| CC1(C)CCC(CN2CCN(c3ccc(C(=O)NS(=O)(=O)c4ccc(NCC5(O)COC5)c([N+](=O)[O-])c4)c(Oc4cnc5[nH]ccc5c4)c3)CC2)=C(c2ccc(Cl)cc2)C1 [Example 15, 4-(4-{[2-(4-chlorophenyl)-4,4-dimethylcyclohex-1-en-1-yl]methyl}piperazin-1-yl)-N-[(4-{[(3-hydroxyoxetan-3-yl)methyl]amino}-3-nitrophenyl)sulfonyl]-2-(1H-pyrrolo[2,3-b]pyridin-5-yloxy)benzamide] | < 0.1 nM | 9.3 nM | < 15% | < 15% |
| CC(C)(O)CCNc1ccc(S(=O)(=O)NC(=O)c2ccc(N3CCN(CC4=C(c5ccc(Cl)cc5)CC(C)(C)CC4)CC3)cc2Oc2cnc3[nH]ccc3c2)cc1[N+](=O)[O-] [Example 12, 4-(4-{[2-(4-chlorophenyl)-4,4-dimethylcyclohex-1-en-1-yl]methyl}piperazin-1-yl)-N-({4-[(3-hydroxy-3-methylbutyl)amino]-3-nitrophenyl}sulfonyl)-2-(1H-pyrrolo[2,3-b]pyridin-5-yloxy)benzamide] | < 0.1 nM | 30 nM | 27% | 41% |
| CC1(C)CCC(CN2CCN(c3ccc(C(=O)NS(=O)(=O)c4ccc(NC[C@H]5COCCO5)c([N+](=O)[O-])c4)c(Oc4cnc5[nH]ccc5c4)c3)CC2)=C(c2ccc(Cl)cc2)C1 [Example 9, 4-(4-{[2-(4-chlorophenyl)-4,4-dimethylcyclohex-1-en-1-yl]methyl}piperazin-1-yl)-N-[(4-{[(2S)-1,4-dioxan-2-ylmethyl]amino}-3-nitrophenyl)sulfonyl]-2-(1H-pyrrolo[2,3-b]pyridin-5-yloxy)benzamide] | < 0.1 nM | 2.2 nM | 58% | 69% |
| CC1(C)CCC(CN2CCN(c3ccc(C(=O)NS(=O)(=O)c4ccc(NCC5(O)CCC(F)(F)CC5)c([N+](=O)[O-])c4)c(Oc4cnc5[nH]ccc5c4)c3)CC2)=C(c2ccc(Cl)cc2)C1 [Example 26, 4-(4-{[2-(4-chlorophenyl)-4,4-dimethylcyclohex-1-en-1-yl]methyl}piperazin-1-yl)-N-[(4-{[(4,4-difluoro-1-hydroxycyclohexyl)methyl]amino}-3-nitrophenyl)sulfonyl]-2-(1H-pyrrolo[2,3-b]pyridin-5-yloxy)benzamide] | < 0.1 nM | 44 nM | 23% | 38% |
| CC1(C)CCC(CN2CCN(c3ccc(C(=O)NS(=O)(=O)c4ccc(NC[C@@H]5CCOC5)c([N+](=O)[O-])c4)c(Oc4cnc5[nH]ccc5c4)c3)CC2)=C(c2ccc(Cl)cc2)C1 [Example 36, 4-(4-{[2-(4-chlorophenyl)-4,4-dimethylcyclohex-1-en-1-yl]methyl}piperazin-1-yl)-N-[(3-nitro-4-{[(3 S)-tetrahydrofuran-3-ylmethyl]amino}phenyl)sulfonyl]-2-(1H-pyrrolo[2,3-b]pyridin-5-yloxy)benzamide] | < 0.1 nM | 32 nM | 42% | 47% |
| CC1(C)CCC(CN2CCN(c3ccc(C(=O)NS(=O)(=O)c4ccc(NCC5(O)CCOCC5)c([N+](=O)[O-])c4)c(Oc4cnc5[nH]ccc5c4)c3)CC2)=C(c2ccc(Cl)cc2)C1 [Example 6, 4-(4-{[2-(4-chlorophenyl)-4,4-dimethylcyclohex-1-en-1-yl]methyl}piperazin-1-yl)-N-[(4-{[(4-hydroxytetrahydro-2H-pyran-4-yl)methyl]amino}-3-nitrophenyl)sulfonyl]-2-(1H-pyrrolo[2,3-b]pyridin-5-yloxy)benzamide] | < 0.1 nM | 7.6 nM | 24% | < 15% |
| CC1(C)CCC(CN2CCN(c3ccc(C(=O)NS(=O)(=O)c4ccc(NNC5CCOCC5)c([N+](=O)[O-])c4)c(Oc4cnc5[nH]ccc5c4)c3)CC2)=C(c2ccc(Cl)cc2)C1 [Example 18, 4-(4-{[2-(4-chlorophenyl)-4,4-dimethylcyclohex-1-en-1-yl]methyl}piperazin-1-yl)-N-({3-nitro-4-[2-(tetrahydro-2H-pyran-4-yl)hydrazinyl]phenyl}sulfonyl)-2-(1H-pyrrolo[2,3-b]pyridin-5-yloxy)benzamide] | < 0.1 nM | 47 nM | 25% | < 15% |
| C[C@@H]1COC[C@H](CNc2ccc(S(=O)(=O)NC(=O)c3ccc(N4CCN(CC5=C(c6ccc(Cl)cc6)CC(C)(C)CC5)CC4)cc3Oc3cnc4[nH]ccc4c3)cc2[N+](=O)[O-])O1 [Example 35, 4-(4-{[2-(4-chlorophenyl)-4,4-dimethylcyclohex-1-en-1-yl]methyl}piperazin-1-yl)-N-{[4-({[(2S,6R)-6-methyl-1,4-dioxan-2-yl]methyl}amino)-3-nitrophenyl]sulfonyl}-2-(1H-pyrrolo[2,3-b]pyridin-5-yloxy)benzamide] | < 0.1 nM | 12 nM | 49% | 54% |
| COC1(CNc2ccc(S(=O)(=O)NC(=O)c3ccc(N4CCN(CC5=C(c6ccc(Cl)cc6)CC(C)(C)CC5)CC4)cc3Oc3cnc4[nH]ccc4c3)cc2[N+](=O)[O-])COCCOC1 [Example 40, 4-(4-{[2-(4-chlorophenyl)-4,4-dimethylcyclohex-1-en-1-yl]methyl}piperazin-1-yl)-N-[(4-{[(6-methoxy-1,4-dioxepan-6-yl)methyl]amino}-3-nitrophenyl)sulfonyl]-2-(1H-pyrrolo[2,3-b]pyridin-5-yloxy)benzamide] | < 0.1 nM | 76 nM |  |  |
